From US5428048A, “Aryl-N-hydroxyureas as inhibitors of 5-lipoxygenase and anto-arteriosclerotic agents” (American Home Products Corporation, priority 1993, dated 1995)

What was measured:
[1] = system: Lipoxygenase; assay: Ex-Vivo Measurement of Lipoxygenase Inhibition in Orally Dosed Rats (LTB4 in A23187-stimulated blood); parameters: species or system Male Sprague Dawley rats; conditions: ex vivo rat, p.o., dose 10 (mg/kg), pretreatment 3 hr
Experimental: 2. […] After an interval of 3 or 6 hours, the rats were anesthetized with metofane (n =4/group) and blood collected in heparinized tubes. White blood cell counts and differentials were made. One ml of blood from each animal was placed in a 5 ml plastic tube in a shaker bath at 37° C. A23187 at a final concentration of 10 μM was added to the blood and the blood vortexed and incubated for 15 min at 37° C. with gentle shaking. Incubation was terminated by vortexing sample and centrifuging immediately at 1200 xG for 15 min at 4° C. The plasma was transferred to 15 ml plastic tubes each containing 8 ml of methanol to precipitate protein followed by vortexing. The samples were stored at -70° C. overnight and the next day the samples were centrifuged at 800 xG for 15 min to pellet the precipitate. The samples were dried in a Savant SpeedVac Concentrator Model SVC 200H and reconstituted to the original volume with cold RIA or ELISA buffer. The reconstituted samples were stored at -70° C. until assayed. The assay for LTB4 was perforated according to the directions of the [^3 H]RIA kit or ELISA kit (Seragen). The total metabolite level in 1 ml of blood is calculated and reported as ng/10^6 neutrophils. Significance is determined by a one-way analysis of variance with LSD comparisons to control (p<0.05).

[2] = target: T1, 5-Lipoxygenase (Homo sapiens, UniProt P09917); assay: Inhibition of 5-Lipoxygenase in Human Whole Blood (ionophore A23187-stimulated LTB4); type: cell-based
T1 construct: endogenous in cells; host or cells: whole blood of male human donors (results per 10^6 neutrophils)
T1 sequence (P09917 1-674): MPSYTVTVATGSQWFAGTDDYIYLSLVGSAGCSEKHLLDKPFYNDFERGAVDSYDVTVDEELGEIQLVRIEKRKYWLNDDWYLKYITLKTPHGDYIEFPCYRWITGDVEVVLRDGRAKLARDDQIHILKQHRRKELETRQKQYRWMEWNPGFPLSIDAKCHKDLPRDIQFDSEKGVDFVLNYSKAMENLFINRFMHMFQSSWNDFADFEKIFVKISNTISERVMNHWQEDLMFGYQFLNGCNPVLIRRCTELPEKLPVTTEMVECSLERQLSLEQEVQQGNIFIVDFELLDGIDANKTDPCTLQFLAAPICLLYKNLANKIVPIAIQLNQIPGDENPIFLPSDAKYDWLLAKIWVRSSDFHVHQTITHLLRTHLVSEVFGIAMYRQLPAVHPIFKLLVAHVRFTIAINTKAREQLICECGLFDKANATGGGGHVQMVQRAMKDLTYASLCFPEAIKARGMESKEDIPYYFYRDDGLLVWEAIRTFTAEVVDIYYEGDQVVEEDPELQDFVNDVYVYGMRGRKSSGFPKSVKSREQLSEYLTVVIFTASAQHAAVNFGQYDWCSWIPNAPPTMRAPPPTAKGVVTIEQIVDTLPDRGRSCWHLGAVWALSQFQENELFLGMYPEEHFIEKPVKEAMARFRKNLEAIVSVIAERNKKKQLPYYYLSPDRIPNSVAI
Experimental: 1. Inhibition of 5-Lipoxygenase in Human Whole Blood
Blood is obtained in 50-100 ml quantities from male donors. White blood cell counts and differentials are made. Two ml of blood are placed in a 15 ml polypropylene test tube. Test compounds are solubilized in dimethylsulfoxide and diluted in 1:10 in 10% bovine serum albumin in phosphate buffered saline, pH 7.4 resulting in a final dimethylsulfoxide concentration of 0.1% in the blood. Then, solutions of test compounds are added to the blood in a shaking water bath at 37° C. for 10 minutes prior to the addition of 30 μM calcium ionophore (A23187, Sigma). After ionophore administration, whole blood samples are mixed and incubated for 20 minutes at 37° C. in a shaking water bath. Incubation is terminated by placing samples in an ice bath and immediately adding ethylene glycol-bis-(β-aminoethyl ether)-N, N,N',N'-tetraacetic acid (10 mM). Samples are mixed and centrifuged at 1200×g for 15 minutes at […]. Preparation of samples for evaluation by RIA or ELISA is carded out by the following protocol. Plasma is removed from sample tubes, placed in 15 ml polypropylene test tubes containing 8 ml methanol, and then vortexed to precipitate protein. Samples are stored at -70° C. overnight. The next day, samples are centrifuged at 200×g for 15 minutes at 4° C. to pellet the precipitate. Samples are dried in a Savant SpeedVac Concentrator, Model SVC 200H, reconstituted to original volume with ice cold RIA or ELISA buffer, and stored at -70° C. until assayed. The assay for eicosanoids (LTB4, TxB2, and PGE2) is performed as described by the manufacturer of the [^3 H]-RIA kit or ELISA kit (LTB4 -Amersham, TxB2 and PGE2 - Caymen Chemical).
The total eicosanoid level in 2 ml of blood is calculated and reported as ng/10^6 neutrophils. Significance is determined by a one-way analysis of variance with least significant difference (LSD) comparisons to control (p≤0.05) and IC50 's (μM) are determined by regression analysis (Finney, 1978). Drug effects are expressed as percent change from control values.

[3] = system: Low Density Lipoprotein; assay: Inhibition of Copper Ion Mediated Oxidation of Low Density Lipoprotein; type: biochemical; conditions: Cu+2 mediated oxidation of rabbit or monkey LDL, 37° C., 90 minutes, 532 nm
Experimental: 5. Inhibition of Copper Ion Mediated Oxidation of Low Density Lipoprotein
In this in vitro assay, the inhibition of Cu^+2 mediated oxidation of rabbit or monkey LDL by an invention compound is determined spectrophotometricallly. Oxidation of LDL results in the formation of LDL-diene which absorbs light at 532 nm. Inhibition of oxidation of LDL leads to a decrease in absorbance at 532 nm.
Rabbit or monkey LDL is prepared according to the procedures of Havel, Eder and Gragdon, "The Distribution and Chemical Composition of Ultracentrifugally Separated Lipoproteins in Human Serum,: J. Clin. Invest. 34, 1345-1353 (1955) and Parhtasarathy, Wieland and Steriberg, "A Role for Endothelial Cell Lipoxygenase in the Oxidative Modification of Low Density Lipoprotein," Proc. Natl. Acad. Sci. USA 86, 1046-1050 (1989). Test compound solutions are prepared by dissolving the invention compounds in ethanol at concentrations up to 248 μM. The medium used is Dulbecco's phosphate buffered saline containing 0.5 mg/ml bovine serum albumin. For standards, 0 to 10 μl of an aqueous solution of 1,1,3,3-tetraethoxypropane (1 μmol/ml H2 O) in 4.1 ml of medium is used.
Test compound solution ([…]) is added to 4 ml of medium in incubation tubes. To each tube is added 10 μl of LDL solution and 25 μl of aqueous copper sulfate solution (1.32 mg/ml H2 O). The tubes are incubated at 37° C. for 90 minutes and the oxidation reaction quenched by addition of 1 ml of thiobarbituric acid solution (0.67% in 50% acetic acid). The tubes are heated at 90° C. for 1 hour, then chilled in an ice bath and the chromophore extracted into 2 ml of n-butanol. Absorbence is read at 532 nm and the results are reported as nmols of malondialdehyde equivalents.
Significant differences (p<0.05) are determined by the Dunnett T-test or by the Student-Newman-Keuls Test for significant differences between means. The assay is conducted using several concentrations [I] of the inhibitor test compounds. The LDL solution concentrations at different experiments were either 1.5 mg/ml, 2.5 mg/ml or 10.3 mg/ml. The IC50 is determined by non-linear regression, plotting log [I] vs. % inhibition. (Reference: K. Yagi, Biochemical Medicine 15,212-216 (1976)).

[4] = system: atherosclerotic lesions; conditions: WHHL rabbits, in words; cited from earlier work
[5] = system: LDL; conditions: in words; cited from earlier work
[6] = system: LDL; conditions: in words; cited from earlier work; remark: listed apart in the source
[7] = system: LT-dependent bronchoconstriction; assay: Inhibition of Bronchoconstriction in Guinea Pigs Induced by Exogenously Administered Antigen; type: in vivo, Male guinea pigs; conditions: 10 mg/kg i.v.
Experimental: 4. Inhibition of Brochoconstriction in Guinea Pigs Induced by Exogenously Administered Antigen
Male guinea pigs (Charles River, Wilmington, Mass.) were sensitized 3-4 weeks prior to antigen challenge by administration of 2 i.m. injections of ovalbumin, 1 into each hind limb (35 mg total). Sensitized animals (500-600 g) were fasted overnight prior to experimentation. Conscious animals were then dosed p.o. with drug or vehicle alone (0.5% Tween 80 in H2 O) at the indicated times prior to antigen challenge, or anesthetized animals were dosed i.v. with drug or vehicle alone (DMSO) 5 min prior to antigen challenge. Animals were anesthetized by urethane (2.8 g/kg i.p.). A carotid artery and jugular vein were cannulated to allow for the monitoring of blood pressure and the administration of drugs, respectively. The trachea was then cannulated and connected to a Harvard Apparatus rodent ventilator (S. Natick, Mass.). Spontaneous respiration was abolished by the administration of succinylcholine (2.5 mg/kg i.v.). The animals were then ventilated with room air at a rate of 65 breaths per min. Airway inflation pressure was measured using a Statham pressure transducer (Gould Instruments, Cleveland, Ohio) connected to the tracheal cannula via a side-arm and recorded on a Grass Instruments recorder (Quincy, Mass.). The tidal volume (approximately 10 cc/kg) was adjusted to give a baseline inflation pressure of 8-10 cm H2 O at end inspiration. Animals were then allowed 20 min to stabilize.
Following the stabilization period, animals were given i.v. injections of pyrilamine (5 mg/kg), propranolol (0.1 mg/kg) and indomethacin (10 mg/kg) at 15, 10 and 5 min, respectively, prior to antigen challenge. This pretreatment results in an LT-dependent bronchoconstriction following antigert challenge, which was accomplished by i.v. administration of ovalbumin (10 mg/kg). Only one bronchoconstriction per animal was induced. End-inspiratory inflation pressure (in cm H2 O over baseline) was measured at 5 min post-antigen challenge. A mean value and standard error for the % inhibition of control bronchoconstriction in each drug-treated group was then calculated.

Cc1oc(-c2cc(C(C)(C)C)c(O)c(C(C)(C)C)c2)nc1CCOc1ccc(CN(O)C(N)=O)cc1 [Example 10]
% Inhibition of LTB4 [1]: 44% | inhibition at 10 µM ([2]; 10 μM): 83% | IC50 [3]: 0.18 µM

CC(C)(Sc1cc(C(C)(C)C)c(O)c(C(C)(C)C)c1)Sc1cc(C(C)(C)C)c(O)c(C(C)(C)C)c1 [Probucol]
inhibition of formation of atherosclerotic lesions [4]: shown to inhibit the formation of atherosclerotic lesions in WHHL rabbits | inhibition of cell mediated oxidative modification of LDL [5]: inhibits both cell mediated and Cu^+2 mediated oxidative modification of LDL | inhibition of Cu+2 mediated oxidative modification of LDL [6]: inhibits both cell mediated and Cu^+2 mediated oxidative modification of LDL

NC(=O)N(O)Cc1ccc(OCCc2csc(-c3ccc(C(F)(F)F)cc3)n2)cc1 [Example 19, 1-Hydroxy-1-[4-[2-[2-(4-trifluoromethyl-phenyl)-thiazol-4-yl]-ethoxy]-benzyl]-urea]
Bronchoconstriction % Inhibition [7]: 21% | inhibition at 1 µM ([2]; 1 μM): 57%
